Assay results from US10487081B2, “Guanidine substituted imidazo[4,5-c] ring compounds” (3M INNOVATIVE PROPERTIES COMPANY, priority 2015, dated 2019).
Where a name gives a salt, the structure may show the parent alone. Read-outs that look alike come from different tables or passages of the source.

Assays:
[1] = system: Human peripheral blood mononuclear cells (PBMC); test: Cytokine Induction in Human Cells; type: cell-based; conditions: 21-24 hrs culture, lowest concentration giving at least 2x negative control, tested 0.0001-10 micromolar
Method: Cytokine Induction in Human Cells
Whole blood was obtained from healthy human donors and collected by venipuncture into vacutainer tubes or syringes containing EDTA. Human peripheral blood mononuclear cells (PBMC) were purified from the whole blood by density gradient centrifugation. Histopaque 1077 (15 mL, Sigma, St. Louis, Mo.) was transferred to 6×50 mL sterile polypropylene conical tubes. The Histopaque was overlayed with 15-25 mL of blood diluted 1:2 in Hank's Balanced Salts Solution (HBSS) (Gibco, Life Technology, Grand Island N.Y.). The tubes were then centrifuged at 1370 rpm for 30 minutes at 20° C., with no brake (400×g, GH 3.8A Rotor).
The interface (buffy coat) containing the PBMC was collected and placed in a new sterile 50 mL conical polypropylene centrifuge tube. The PBMC were mixed with an equal volume of HBSS (about 20 mL from the interface and about 20 mL of HBSS), and then centrifuged at 1090 rpm, 10 min, 20° C., with brake (270×g, GH 3.8A Rotor). After completing centrifugation, the cells were resuspended in 2-3 mL ACK Red blood cell lysis buffer (ammonium chloride potassium solution, Gibco, Life Technology) and incubated for 2-5 minutes at 20° C. Next, HBSS (40 mL) was added to the cells, and the sample was centrifuged at 270×g for 10 min at 20° C. The supernatant was decanted, and the cell pellet was resuspended in 5 mL AIM V® Medium (Gibco, Life Technology). Cell aggregates and debris were removed by filtering the cell solution through a BD Falcon 70 micron nylon cell strainer (BD Biosciences, San Jose, Calif.).
The number of viable cells were determined by counting with a Miltenyi FACS instrument (Miltenyi Biotec Inc., San Diego, Calif.) or by using a hemacytometer. For determining cell viability with a hemacytometer, the cells were diluted 1/10 in 0.4% trypan blue and HBSS (specifically, 50 microliter of trypan blue+40 microliter of HBSS+10 microliter of cell solution were added to a microfuge tube and mixed). Ten microliters of the diluted cells were then applied to the hemacytometer, and the number of viable PBMC were determined by microscopy.
The PBMC sample was then resuspended in 96-well plates at a concentration of 8×10^5 cells/well in 0.1 mL of AIM-V medium. Each compound was solubilized in DMSO to create a 3 mM stock solution. The stock solution was then further diluted with AIM-V medium to prepare the serial dilutions. The diluted compound (100 microliters) was then transferred to the PBMCs to achieve final compound concentrations of 10, 1, 0.1, 0.01, 0.001, 0.0001 micromolar. The plates also had both positive and negative controls. The negative control wells contained only AIM-V medium with no example compound. The positive control wells contained imiquimod serially diluted to concentrations of 10, 1, 0.1, 0.01, 0.001, 0.0001 micromolar. The plates were then cultured at 37° C./5% CO2 for 21-24 hrs. Cell-free supernatants were harvested by centrifuging the 96-well plates at 2100 rpm, 23° C. for 10 minutes. Approximately 160 microliter of the supernatant was then stored in a NUNC 96-well plate, covered with the compression cap and stored at −80° C. until the cytokine analysis was done.
IFN-alpha cytokine levels (pg/mL) were measured by ELISA (human IFN-α, pan specific, Mabtech, Cincinnati, Ohio), IFN-gamma, TNF-alpha, and IP-10 cytokine levels (pg/mL) were measured by multiplex bead assay (magnetic beads, R & D Systems Minneapolis, Minn.) according to the manufacturer's instructions.
Specifically, the minimum effective concentration of each compound (micromolar) was determined as the lowest concentration of the compound that induced a measured cytokine response at a level ([…]) that was at least 2× greater than that observed with the negative control wells.

[2] = ELISA, read-out: MEC to Induce Cytokine IFN-alpha
[3] = multiplex bead assay, read-out: MEC to Induce Cytokine TNF-alpha

melting point	Structure (SMILES)	minimal effective concentration [1, 2]	MEC to Induce Cytokine IFN-gamma ([1]; multiplex bead assay)	MEC to Induce Cytokine IP-10 ([1]; multiplex bead assay)	minimal effective concentration [1, 3]
237 to 238 °C	CCCCc1nc2c(N)nc3ccccc3c2n1CCCCNC(=N)N (as salt: hydrochloride) [Example 4, 1-[4-(4-amino-2-butyl-imidazo[4,5-c]quinolin-1-yl)butyl]guanidine hydrochloride]				
188 to 192 °C	COCCc1nc2c(N)nc3ccccc3c2n1CCOCCNC(=N)N (as salt: hydrochloride) [Example 6, 1-[2-[2-[4-amino-2-(2-methoxyethyl)imidazo[4,5-c]quinolin-1-yl]ethoxy]ethyl]guanidine dihydrochloride]				
	CCCCCc1nc2c(N)nc3c(c2n1CCCCNC(=N)N)CCCC3 [Example 7, 1-[4-(4-amino-2-pentyl-6,7,8,9-tetrahydroimidazo[4,5-c]quinolin-1-yl)butyl]guanidine hydrochloride]	1 µM	>10 µM	0.1 µM	1 µM
	CCCCc1nc2c(N)nc3ccccc3c2n1CCOCCNC(=N)N [Example 5, 1-[2-[2-(4-amino-2-butyl-imidazo[4,5-c]quinolin-1-yl)ethoxy]ethyl]guanidine dihydrochloride]	0.01 µM	0.01 µM	0.001 µM	0.001 µM
	COCCc1nc2c(N)nc3ccccc3c2n1CCOCCNC(=N)N [Example 6, 1-[2-[2-[4-amino-2-(2-methoxyethyl)imidazo[4,5-c]quinolin-1-yl]ethoxy]ethyl]guanidine dihydrochloride]	0.01 µM	0.01 µM	0.01 µM	0.01 µM
234 to 244 °C	Cc1nc2c(N)nc3ccccc3c2n1CCCCNC(=N)N (as salt: hydrochloride) [Example 1, 1-[4-(4-amino-2-methyl-imidazo[4,5-c]quinolin-1-yl)butyl]guanidine dihydrochloride]				
246 to 250 °C	COCCc1nc2c(N)nc3ccccc3c2n1CC(C)(C)CNC(=N)N (as salt: hydrochloride) [Example 8, 1-[3-[4-amino-2-(2-methoxyethyl)imidazo[4,5-c]quinolin-1-yl]-2,2-dimethyl-propyl]guanidine hydrochloride]				
	CC(C)Cn1cnc2c(N)nc3ccccc3c21 [imiquimod, reference compound]	10 µM	10 µM	10 µM	10 µM
178 to 180 °C	CCCCCc1nc2c(N)nc3c(c2n1CCCCNC(=N)N)CCCC3 (as salt: hydrochloride) [Example 7, 1-[4-(4-amino-2-pentyl-6,7,8,9-tetrahydroimidazo[4,5-c]quinolin-1-yl)butyl]guanidine hydrochloride]				
	COCCc1nc2c(N)nc3ccccc3c2n1CC(C)(C)CNC(=N)N [Example 8, 1-[3-[4-amino-2-(2-methoxyethyl)imidazo[4,5-c]quinolin-1-yl]-2,2-dimethyl-propyl]guanidine hydrochloride]	0.1 µM	0.1 µM	0.01 µM	0.1 µM
	CCc1nc2c(N)nc3ccccc3c2n1CCCCNC(=N)N [Example 2, 1-[4-(4-amino-2-ethyl-imidazo[4,5-c]quinolin-1-yl)butyl]guanidine hydrochloride]	0.1 µM		0.1 µM	0.1 µM
	CCCCc1nc2c(N)nc3ccccc3c2n1CCCCNC(=N)N [Example 4, 1-[4-(4-amino-2-butyl-imidazo[4,5-c]quinolin-1-yl)butyl]guanidine hydrochloride]	0.01 µM	0.1 µM	0.01 µM	0.01 µM
156 to 158 °C	CCCc1nc2c(N)nc3ccccc3c2n1CCCCNC(=N)N (as salt: hydrochloride) [Example 3, 1-[4-(4-amino-2-propyl-imidazo[4,5-c]quinolin-1-yl)butyl]guanidine hydrochloride]				
	Cc1nc2c(N)nc3ccccc3c2n1CCCCNC(=N)N [Example 1, 1-[4-(4-amino-2-methyl-imidazo[4,5-c]quinolin-1-yl)butyl]guanidine dihydrochloride]	1 µM			0.001 µM
	CCCc1nc2c(N)nc3ccccc3c2n1CCCCNC(=N)N [Example 3, 1-[4-(4-amino-2-propyl-imidazo[4,5-c]quinolin-1-yl)butyl]guanidine hydrochloride]	0.1 µM	>10 µM		0.1 µM
